14 compounds from patent US11091478B2 (Fochon Pharmaceuticals, Ltd., priority 2017, dated 2021) can be followed below.

The subject of one experiment is RS4;11 cells. The experiment can be described thus: Cell proliferation assay (MTS), RS4;11 cells, 72 h. In kind it is cell-based. The settings on record: Homo sapiens, RS4-11, 72 h. The text has this: (§1) Cell Proliferation Assays
(§2) MTS testing kit was purchased from Promega. The RPMI-1640, Fetal bovine serum and Penicillin-Streptomycin were purchased from Gibco. Dimethyl sulfoxide (DMSO) was purchased from Sigma.
(§3) To investigate whether a compound is able to inhibit the activity of BCL-2 in cells, a mechanism-based assay using DOHH2 (DSMZ No.® ACC 47) and RS4;11 (ATCC® CRL-1873™) cell was developed. In this assay, inhibition of Bcl-2 was detected by the inhibition of DOHH2 cells proliferation. DOHH2 cells were cultured in culture flasks to 40-80% confluence in RPMI-1640 plus 10% fetal bovine serum. Cells were collected and plated onto 96-well plates at desired cell density (5000 cells/well). Plates were incubated overnight at 37° C., with 5% CO2 to adhere. Compounds were added to the plates, and the final compound concentrations were 10000, 3333, 1111, […], 124, 41, 14, 4.6 and 1.5 nM. Plates plated with DOHH2 or RS4;11 cells were placed at 37° C., with 5% CO2 for 120 h (DOHH2) or 72 h (RS4;11) respectively. 20 μl MTS/100 μl medium mixture solution were added to each well and incubate the plates for exactly 2 hours. The reaction was stopped by adding 25 μl 10% SDS per well. Measure absorbance at 490 nm and 650 nm (reference wavelength). IC50 was calculated using GraphPad Prism 5.0.
(§4) Select compounds prepared as described above were assayed according to the biological procedures described herein.

Another experiment concerns DOHH2 cells. Description: Cell proliferation assay (MTS), DOHH2 cells, 120 h. The settings on record: Homo sapiens, DOHH-2, 120 h. In kind it is cell-based.
Text: as §1, §2, §3, §4

For `COC[C@H]1COc2cc(S(=O)(=O)NC(=O)c3ccc(N4CCN(CC5=C(c6ccc(Cl)cc6)CC(C)(C)CC5)CC4)cc3Oc3cnc4[nH]ccc4c3)cc([N+](=O)[O-])c2N1` [Example 2-116, (S)-2-((1H-pyrrolo[2,3-b]pyridin-5-yl)oxy)-4-(4-((4′-chloro-5,5-dimethyl-3,4,5,6-tetra-hydro-[1,1′-biphenyl]-2-yl)methyl)piperazin-1-yl)-N-((3-(methoxymethyl)-5-nitro-3,4-dihydro-2H-benzo[b][1,4]oxazin-7-yl)sulfonyl)benzamide], the results for the IC50 with RS4;11 cells and with DOHH2 cells were 16 nM and 83 nM, respectively. The matching figures for `CC1(C)CCC(CN2CCN(c3ccc(C(=O)NS(=O)(=O)c4cc5c(c([N+](=O)[O-])c4)N[C@@H](CO)CS5)c(Oc4cnc5[nH]ccc5c4)c3)CC2)=C(c2ccc(Cl)cc2)C1` [Example 3-7, (S)-2-((1H-pyrrolo[2,3-b]pyridin-5-yl)oxy)-4-(4-((4′-chloro-5,5-dimethyl-3,4,5,6-tetra-hydro-[1,1′-biphenyl]-2-yl)methyl)piperazin-1-yl)-N-((3-(hydroxymethyl)-5-nitro-3,4-dihydro-2H-benzo[b][1,4]thiazin-7-yl)sulfonyl) benzamide]: 10 nM and 31 nM. As for `CC1(C)CCC(CN2CCN(c3ccc(C(=O)NS(=O)(=O)c4cc5c(c([N+](=O)[O-])c4)N[C@H](CC(=O)N4CCOCC4)C5)c(Oc4cnc5[nH]ccc5c4)c3)CC2)=C(c2ccc(Cl)cc2)C1` [Example 1-24, (S)-2-((1H-pyrrolo[2,3-b]pyridin-5-yl)oxy)-4-(4-((4′-chloro-5,5-dimethyl-3,4,5,6-tetra-hydro-[1,1′-biphenyl]-2-yl)methyl)piperazin-1-yl)-N-((2-(2-morpholino-2-oxoethyl)-7-nitroindolin-5-yl)sulfonyl)benzamide], the IC50 amounted to 73 nM with RS4;11 cells and 41 nM with DOHH2 cells. The like results for `CN(C)C(=O)[C@H]1COc2cc(S(=O)(=O)NC(=O)c3ccc(N4CCN(CC5=C(c6ccc(Cl)cc6)CC(C)(C)CC5)CC4)cc3Oc3cnc4[nH]ccc4c3)cc([N+](=O)[O-])c2N1` [Example 2-102, (R)-7-(N-(2-((1H-pyrrolo[2,3-b]pyridin-5-yl)oxy)-4-(4-((4′-chloro-5,5-dimethyl-3,4,5,6-tetrahydro-[1,1′-biphenyl]-2-yl)methyl)pi-perazin-1-yl)benzoyl)sulfamoyl)-N,N-dimethyl-5-nitro-3,4-dihydro-2H-benzo[b] [1,4]oxazine-3-carboxamide] were, in that order, 10 nM and 95 nM. Consider `CC1(C)CCC(CN2CCN(c3ccc(C(=O)NS(=O)(=O)c4cc5c(c([N+](=O)[O-])c4)N[C@@H](CNS(=O)(=O)N4CCOCC4)CO5)c(Oc4cnc5[nH]ccc5c4)c3)CC2)=C(c2ccc(Cl)cc2)C1` [Example 2-67, (S)-2-((1H-pyrrolo[2,3-b]pyriidn-5-yl)oxy)-4-(4-((4′-chloro-5,5-dimethyl-3,4,5,6-tetra-hydro-[1,1′-biphenyl]-2-yl)methyl)piperazin-1-yl)-N-((3-((morpholine-4-sulfonamido)methyl)-5-nitro-3,4-dihydro-2H-benzo[b] [1,4]oxazin-7-yl)sulfonyl)benzamide], for which half-maximal inhibition in the experiment on DOHH2 cells (IC50) required 1320 nM. Take `C[C@@H]1COCCN1C[C@H]1COc2cc(S(=O)(=O)NC(=O)c3ccc(N4CCN(CC5=C(c6ccc(Cl)cc6)CC(C)(C)CC5)CC4)cc3Oc3cnc4[nH]ccc4c3)cc([N+](=O)[O-])c2N1` [Example 2-86, 2-((1H-pyrrolo[2,3-b]pyridin-5-yl)oxy)-4-(4-((4′-chloro-5,5-dimethyl-3,4,5,6-tetra-hydro-[1,1′-biphenyl]-2-yl)methyl)piperazin-1-yl)-N-(((S)-3-(((R)-3-methylmorpholino)meth-yl)-5-nitro-3,4-dihydro-2H-benzo[b][1,4]oxazin-7-yl)sulfonyl)benzamide]: in the experiment with DOHH2 cells, the IC50 turned out to be 648 nM. Same read-out and setting: the figure for `CC1(C)CCC(CN2CCN(c3ccc(C(=O)NS(=O)(=O)c4cc5c(c([N+](=O)[O-])c4)N[C@H](CC4CCC(C)(O)CC4)CO5)c(Oc4cnc5[nH]ccc5c4)c3)CC2)=C(c2ccc(Cl)cc2)C1` (stereo partly drawn) [Example 2-219, (R)-2-((1H-pyrrolo[2,3-b]pyridin-5-yl)oxy)-4-(4-((4′-chloro-5,5-dimethyl-3,4,5,6-tetra-hydro-[1,1′-biphenyl]-2-yl)methyl)piperazin-1-yl)-N-((3-((4-hydroxy-4-methylcyclo-hexyl)methyl)-5-nitro-3,4-dihydro-2H-benzo [b][1,4]oxazin-7-yl)sulfonyl)benzamide] is 662 nM; for `CC1(C)CCC(CN2CCN(c3ccc(C(=O)NS(=O)(=O)c4cc5c(c([N+](=O)[O-])c4)N[C@@H](c4ccc(Cl)cn4)CO5)c(Oc4cnc5[nH]ccc5c4)c3)CC2)=C(c2ccc(Cl)cc2)C1` [Example 2-198B, (S)-2-((1H-pyrrolo[2,3-b]pyridin-5-yl)oxy)-4-(4-((4′-chloro-5,5-dimethyl-3,4,5,6-tetra-hydro-[1,1′-biphenyl]-2-yl)methyl)piperazin-1-yl)-N-((3-(5-chloropyridin-2-yl)-5-nitro-3,4-dihydro-2H-benzo[b][1,4]oxazin-7-yl)sulfonyl)benzamide] it is 444 nM; for `CC1(C)CCC(CN2CCN(c3ccc(C(=O)NS(=O)(=O)c4cc5c(c([N+](=O)[O-])c4)N[C@@H](Cc4ccccc4Cl)CO5)c(Oc4cnc5[nH]ccc5c4)c3)CC2)=C(c2ccc(Cl)cc2)C1` [Example 2-191, (S)-2-((1H-pyrrolo[2,3-b]pyridin-5-yl)oxy)-4-(4-((4′-chloro-5,5-dimethyl-3,4,5,6-tetra-hydro-[1,1′-biphenyl]-2-yl)methyl)piperazin-1-yl)-N-((3-(2-chlorobenzyl)-5-nitro-3,4-dihydro-2H-benzo[b][1,4]oxazin-7-yl)sulfo-nyl)benzamide] it is 153 nM.

Consider `CC1(C)CCC(CN2CCN(c3ccc(C(=O)NS(=O)(=O)c4cc5c(c([N+](=O)[O-])c4)N[C@H](c4ccccc4)CO5)c(Oc4cnc5[nH]ccc5c4)c3)CC2)=C(c2ccc(Cl)cc2)C1` [Example 2-165, (R)-2-((1H-pyrrolo[2,3-b]pyridin-5-yl)oxy)-4-(4-((4′-chloro-5,5-dimethyl-3,4,5,6-tetra-hydro-[1,1′-biphenyl]-2-yl)methyl)piperazin-1-yl)-N-((5-nitro-3-phenyl-3,4-dihydro-2H-benzo[b][1,4]oxazin-7-yl)sulfonyl)benza-mide], for which the IC50 in the experiment on DOHH2 cells amounted to 77 nM.

`CC1(C)CCC(CN2CCN(c3ccc(C(=O)NS(=O)(=O)c4cc5c(c([N+](=O)[O-])c4)N[C@@H](Cc4ccccn4)CO5)c(-n4ncc5nc6[nH]ccc6cc54)c3)CC2)=C(c2ccc(Cl)cc2)C1` [Example 6-3, (S)-4-(4-((4′-chloro-5,5-dimethyl-3,4,5,6-tetrahydro-[1,1′-biphenyl]-2-yl)methyl)piperazin-1-yl)-N-((5-nitro-3-(pyridin-2-ylmethyl)-3,4-dihydro-2H-benzo[b][1,4]oxazin-7-yl)sulfonyl)-2-(pyrazolo[4,3-b]pyrrolo[3,2-e]pyridin-1(5H)-yl)benzamide] showed an IC50 in the experiment on DOHH2 cells of 185 nM. Same read-out and setting: for `CC1(C)CCC(CN2CCN(c3ccc(C(=O)NS(=O)(=O)c4cc5c(c([N+](=O)[O-])c4)N[C@@H](c4ccccc4)CO5)c(Oc4cnc5[nH]ccc5c4)c3)CC2)=C(c2ccc(Cl)cc2)C1` [Example 2-172, (S)-2-((1H-pyrrolo[2,3-b]pyridin-5-yl)oxy)-4-(4-((4′-chloro-5,5-dimethyl-3,4,5,6-tetra-hydro[1,1′-biphenyl]-2-yl)methyl)piperazin-1-yl)-N-((5-nitro-3-phenyl-3,4-dihydro-2H-benzo[b][1,4]oxazin-7-yl)sulfonyl)benza-mide] the value was 14 nM; for `COc1ccc([C@@H]2COc3cc(S(=O)(=O)NC(=O)c4ccc(N5CCN(CC6=C(c7ccc(Cl)cc7)CC(C)(C)CC6)CC5)cc4Oc4cnc5[nH]ccc5c4)cc([N+](=O)[O-])c3N2)cc1` [Example 2-169, (R)-2-((1H-pyrrolo[2,3-b]pyridin-5-yl)oxy)-4-(4-((4′-chloro-5,5-dimethyl-3,4,5,6-tetra-hydro-[1,1′-biphenyl]-2-yl)methyl)piperazin-1-yl)-N-((3-(4-methoxyphenyl)-5-nitro-3,4-dihydro-2H-benzo[b][1,4]oxazin-7-yl)sulfonyl)benzamide], 39 nM. On the same count and under the same terms, the figure for `CC(=O)NCC[C@@H]1COc2cc(S(=O)(=O)NC(=O)c3ccc(N4CCN(CC5=C(c6ccc(Cl)cc6)CC(C)(C)CC5)CC4)cc3Oc3cnc4[nH]ccc4c3)cc([N+](=O)[O-])c2N1` [Example 2-62, (R)-2-((1H-pyrrolo[2,3-b]pyridin-5-yl)oxy)-N-((3-(2-acetamidoethyl)-5-nitro-3,4-di-hydro-2H-benzo[b][1,4]oxazin-7-yl)sulfonyl)-4-(4-((4′-chloro-5,5-dimethyl-3,4,5,6-tetra-hydro-[1,1′-biphenyl]-2-yl)methyl)piperazin-1-yl)benzamide] is 230 nM.
